Like-named read-outs stand apart in the source and are kept apart here.
Columns and labels:
[1] = Measurement of thermodynamic solubility; format: physicochemical; details: thermodynamic from solid, read-out: solubility in water
Procedure: Thermodynamic solubility for the compounds of the invention listed in Table C is measured by a published literature procedure, e.g., Liping Zhou, et al., J. Pharm. Sci (2007) 96(11): 3052-3071.
The DMSO stocks of test compounds previously dissolved in 25 μL of DMSO (˜10 mM) in mini-prep vial (MPV: Whatman, with PVDF filter and 0.45 μm pore size) chamber were evaporated via a GeneVac HT-4X evaporator for approximately 1 hour, at the guard temperature of 30° C. An aliquot of 250 μL buffer solution (pH 1.0 or 6.8) was added into each MPV chamber containing powders reconstituted from DMSO stock solutions. The MPV filter plungers were pushed down into the chamber until the membrane of the filter plunger slightly touched the surface of the buffer to promote equilibrium between the two compartments and to minimize the adsorption due to non-specific binding of samples during the subsequent 24-hr incubation (at 600 RPM at room temperature). Immediately after the 24-hr incubation, the plungers were further pushed down to the bottom of the chambers. More solution was pushed through the membrane and entered the plunger compartment. The filter/chamber assemblies were then put on a shaker for another 30 minutes at 600 RPM. Afterwards, filtrates were further diluted (1:10) with 50/50 acetonitrile/water solvent followed by a thorough mixing process. Both plates with diluted and undiluted filtrates were analyzed by HPLC and quantified against the four-point standard dilution curve of the same test compound (5 μM, 35 μM, 65 μM and 100 μM, respectively). In the current study, solubility reflects the average of triplicate samples tested at each pH.

[2] = biological target: T1, HCV NS3-4A serine protease (full-length NS3-4A protein, genotype 1a, strain HCV-1) (Hepatitis C virus genotype 1a, UniProt P26664); assay: HCV NS3-4A protease assay; format: biochemical; details: Protease IC50
T1 construct: using the full-length NS3-4A protein (genotype 1a, strain HCV-1)
T1 sequence (P26664 1658-1711): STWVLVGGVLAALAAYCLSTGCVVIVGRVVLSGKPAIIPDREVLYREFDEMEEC
T1 sequence (P26664 1027-1657): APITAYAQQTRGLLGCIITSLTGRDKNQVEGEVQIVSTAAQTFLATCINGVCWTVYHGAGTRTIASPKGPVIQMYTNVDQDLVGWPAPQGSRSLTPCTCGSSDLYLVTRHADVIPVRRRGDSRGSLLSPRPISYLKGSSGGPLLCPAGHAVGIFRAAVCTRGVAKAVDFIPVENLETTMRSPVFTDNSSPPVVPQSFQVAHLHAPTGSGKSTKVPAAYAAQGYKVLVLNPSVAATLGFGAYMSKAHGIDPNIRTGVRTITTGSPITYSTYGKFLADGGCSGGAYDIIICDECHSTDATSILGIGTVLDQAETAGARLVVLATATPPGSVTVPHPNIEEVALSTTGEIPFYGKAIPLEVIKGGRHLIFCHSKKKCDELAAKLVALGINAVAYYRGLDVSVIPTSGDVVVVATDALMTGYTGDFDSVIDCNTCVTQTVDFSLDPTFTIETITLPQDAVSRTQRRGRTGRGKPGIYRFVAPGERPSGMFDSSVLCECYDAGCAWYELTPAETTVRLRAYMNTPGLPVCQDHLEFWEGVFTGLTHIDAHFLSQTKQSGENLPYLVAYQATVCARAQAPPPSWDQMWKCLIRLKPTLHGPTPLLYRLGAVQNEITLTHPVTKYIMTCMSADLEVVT
Procedure: The inhibitory activity of certain compounds of Table A against HCV NS3-4A serine protease is determined in a homogenous assay using the full-length NS3-4A protein (genotype 1a, strain HCV-1) and a commercially available internally-quenched fluorogenic peptide substrate as described by Taliani, M., et al. 1996 Anal. Biochem. 240:60-67, which is incorporated by reference in its entirety.

[3] = in vivo; parameters: species or system Sprague Dawley rats; details: Sprague Dawley, rat
Procedure: Certain compounds of Table A and Comparative Example 1 (Compound A-7 of copending international patent application serial no. PCT/EP08/063,460) are administered as a solution orally via gavage at 10 mg/kg to Sprague Dawley rats at a dosing volume of 10 ml/kg. Samples are collected via a surgically implanted cannula at selected timepoints deemed necessary to characterize pharmacokinetic parameters. Blood samples are placed on wet ice and spun down to plasma within 5 minutes of timepoint collection. Plasma samples are frozen until bioanalytical analysis.
Certain compounds of Table A and Comparative Example 1 are administered intravenously into a surgically implanted cannula as a solution at 1 mg/kg to Sprague Dawley rats at a dosing volume of […]. Samples are collected via another surgically implanted cannula at selected timepoints deemed necessary to characterize pharmacokinetic parameters. Blood samples are placed on wet ice and spun down to plasma within 5 minutes of timepoint collection. Plasma samples are frozen until bioanalytical analysis.

CC[C@@H]1C[C@]1(NC(=O)[C@@H]1C[C@@]2(CN1C(=O)[C@@H](NC(=O)[C@@H](NC(=O)[C@@H]1CCCCN1CC)C1CCCCC1)C(C)(C)C)C(C)(C)C21CCC1)C(=O)NS(=O)(=O)C1(C)CC1 [Compound 83, (5R,8S)-7-[(2S)-2-{[(2S)-2-cyclohexyl-2-({[(2S)-1-ethylpiperidin-2-yl]carbonyl}amino)acetyl]amino}-3,3-dimethylbutanoyl]-N-[(1R,2R)-2-ethyl-1-{[(1-methylcyclopropyl)sulfonyl]carbamoyl}cyclopropyl]-10,10-dimethyl-7-azadispiro[3.0.4.1]decane-8-carboxamide]
solubility at 24 h ([1]; pH 1, simulated gastric fluid, pH of about 1): ≥ 100 µM | solubility at 24 h ([1]; pH 6.8, aqueous buffer, pH of about 6.8): ≥ 30 µM | IC50 [2]: 2.5 nM | bioavailability [3]: 26% | Cmax ([3]; po, 10 mg/kg): 578 nM

Reference: US20110182850A1, “ORGANIC COMPOUNDS AND THEIR USES” (priority 2009, published 2011)
